From patent publication US8513267B2, “4-anilinoquinazoline derivatives with adenosine-kinase inhibitor properties” (Universidade Estadual de Campinas-Unicamp, priority 2004, dated 2013)
Like-named read-outs stand apart in the source and are kept apart here.

Tests used:
[1] = tested on: isolated rat hearts; assay: Concentration-response of quinazoline compounds on left ventricle systolic pressure and heart rate of isolated rat hearts; conditions: for increase in systolic pressure: according to basal absolute values of systolic pressure; for bradycardia response: decrease in heart rate compared to basal values; for Final heart rate: final value after infusions of increased concentrations; for Emax in the fractional pressor response: fractional values; for Initial heart rate: initial value before infusions of increased concentrations; for maximum pressor response (LVP): isolated rat hearts, infused concentrations 30 pM-2 μM
Description: Systolic pressure responses of the left ventricle were expressed as fractional values, while heart rate responses were expressed as absolute values. […] EC50: concentration of the drug that produces half of the maximum effect.

[2] = tested on: myocardium of isolated rat hearts; assay: Adenosine dosage (HPLC) in the myocardium of isolated rat hearts
Description: We conducted adenosine dosages in the myocardium of isolated rat hearts with compounds 4d (Example 7) and 4i (Example 17). Chromatograms obtained through HPLC experiments in rat myocardium extracts for dosage of tissue adenosine and AMP are presented in FIG. 6.

[3] = target: T1, cardiac adenosine kinase (Rattus norvegicus, UniProt Q64640); assay: HPLC adenosine kinase activity test with derivatized adenosine as substrate in myocardium extracts; format: biochemical; conditions: fluorescence detection
T1 construct: used as a substrate in myocardium extracts; from tissue; host or cells: rat myocardium (heart) extract

[4] = tested on: isolated rat hearts; assay: Heart rate of isolated rat hearts perfused with HEPES buffer with 1 nM 4i with or without 8-PT
Procedure: In FIG. 14, we present diagrams that represent heart rates of isolated rat hearts perfused with pure HEPES buffer (control), or HEPES buffer with 1 nM of 4i (Example 17), or HEPES buffer with 1 nM of 4i (Example 17) plus 1 μM of unspecific inhibitor of adenosine receptors, 8-PT (4i+8-PT). […] However, perfusion of hearts with 4i (Example 17) and 8-PT annulled bradycardia caused by 4i (Example 17), confirming our hypothesis that the quinazoline compound could be acting in a direct or indirect way on adenosine receptors. In Table 5, we present heart rate values (bpm) from individual experiments of isolated hearts perfused with pure HEPES buffer (control), HEPES buffer with 1 nM of 4i (Example 17), or HEPES buffer with 1 nM of 4i (Example 17) and […] of 8-PT (mean±S.E.M.).

[5] = tested on: isolated rat hearts; assay: Concentration-response in isolated heart with heart rate held constant by electrical stimulator; conditions: heart rate held constant by electrical stimulator (FIG. 12)
Description: In order to confirm our hypothesis that pressor response of compound 4i depends on bradycardia and not on a direct action of 4i in the inotropism of isolated rat hearts, we conducted experiments where heart rate was held constant during infusion of increased concentrations of 4i (Example 17), through the action of an electrical stimulator. In FIG. 12 we represent the concentration-response relationship to 4i (Example 17) in isolated heart submitted to electrical stimulus.

[6] = tested on: isolated hearts; assay: Isolated hearts perfused with propanolol, diltiazem or reduced calcium concentration; set-up: species or system rat; conditions: propanolol or diltiazem blocking, or decreased calcium in perfusion buffer
Description: There was also a negative correlation between levels of ventricular pressure and heart rate in isolated hearts treated with increased doses of compound 4i (Example 17) in the presence of blockers like propanolol and diltiazem, and reduced concentrations of calcium in the perfusion buffer. In FIG. 11, we presented diagrams of the correlation between increase in systolic pressure and decrease in heart rate in isolated hearts submitted to injections (bolus) of 4i (Example 17) perfused with propanolol, diltiazem and with reduction of the calcium concentration in the perfusion buffer. Data are presented as mean±S.E.M.
Results obtained with 4i (Example 17) and other quinazoline compounds point out that the main functional effect of these compounds on isolated rat hearts is bradycardia, and the pressor effect depends on bradycardia, and thus is a consequence of particularities of the preparation used (i.e., isolated heart) and not a direct effect. Because the bradycardia response was not altered by propanolol or diltiazem blocking, or even by decrease in calcium concentration in the perfusion buffer, our hypothesis is that this effect of quinazoline compounds depends on a direct effect of them on pacemaker cells, or even on an indirect effect through secretion of autocrine or paracrine compounds. […]

[7] = tested on: isolated hearts; assay: Concentration-effect experiments with adenosine with and without 8-PT in isolated hearts; set-up: species or system rat; conditions: for EC50: Rattus norvegicus
Procedure: In Table 3, we present values of Emax, EC50 (nM) and LogEC50 in the fractional pressor response to infusion of increased concentrations of adenosine in isolated hearts perfused with pure HEPES buffer, or with HEPES buffer with 8-PT (mean±S.E.M.).
Both effects were altered by the action of the unspecific adenosine receptor inhibitor, 8-PT (1 μM), added to the perfusion buffer. According to results presented in FIG. 13, the increase in systolic pressure in response to infusion of increased concentrations of adenosine, both in control hearts as in those treated with the unspecific adenosine inhibitor, was almost the same. […] Concerning heart rate, the adenosine bradycardia effect was reduced when the inhibitor was present, showing a decrease of about 15% if compared to basal values of Table 4, where we present initial and final heart rate values (bpm) in the response to infusion of increased concentrations of adenosine in isolated hearts perfused with pure HEPES buffer and HEPES buffer with 8-PT (mean±S.E.M.).

[8] = Rattus norvegicus, mean±S.E.M., given as negative log values, read-out: LogEC50 in the fractional pressor response (converted)
[9] = Rattus norvegicus, mean±S.E.M., infusion of increased concentrations, read-out: EC50 in the fractional pressor response
[10] = mean±S.E.M., infusion of increased concentrations, hydrochloride

T1 sequence (Q64640 whole entry): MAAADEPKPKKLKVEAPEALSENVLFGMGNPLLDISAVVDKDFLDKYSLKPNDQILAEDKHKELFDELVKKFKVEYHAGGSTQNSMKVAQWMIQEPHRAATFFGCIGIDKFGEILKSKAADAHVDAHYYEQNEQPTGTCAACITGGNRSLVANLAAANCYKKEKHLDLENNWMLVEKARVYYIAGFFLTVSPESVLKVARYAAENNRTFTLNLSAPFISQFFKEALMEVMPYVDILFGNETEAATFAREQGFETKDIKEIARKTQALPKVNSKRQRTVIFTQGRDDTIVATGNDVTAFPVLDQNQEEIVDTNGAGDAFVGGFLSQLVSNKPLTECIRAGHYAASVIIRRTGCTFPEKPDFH

COc1cc2ncnc(Nc3ccc(C(C)=O)cc3)c2cc1OC.Cl
melting point: 218 to 220 °C

COc1cc2ncnc(Nc3cccc(C(C)=O)c3)c2cc1OC.Cl
melting point: 219 to 221 °C

COc1cc2ncnc(Cl)c2cc1OC [3a, 4-chloro-6,7-dimethoxyquinazoline]
EC50 [1, 8]: 0.631 nM
EC50 [1, 9]: 0.6 ± 0.5 nM
increase in systolic pressure [1]: ~30%
bradycardia response [1]: ~29%
Final heart rate ([1]; mean±S.E.M.): 173 ± 1 bpm
Emax in the fractional pressor response ([1]; mean±S.E.M., infusion of increased concentrations): 0.6±0.2
Initial heart rate ([1]; mean±S.E.M.): 242 ± 5 bpm

COc1cc2ncnc(Nc3ccc(I)cc3)c2cc1OC.Cl
melting point: 266 to 269 °C

COc1cc2ncnc(Nc3ccc(C)cc3)c2cc1OC.Cl
melting point: 227 to 229 °C

COc1cc2ncnc(Nc3cccc(Br)c3)c2cc1OC.Cl [4d, 6,7-Dimethoxy-4-(3′-bromoanilino)quinazoline hydrochloride]
effect on amount of myocardial adenosine ([2]; chromatograms of rat myocardium extracts (FIG. 6)): increased substantially
myocardial adenosine value ([2]; hearts treated with compound, average, basal value 0.48): 0.75 nmol/mg of protein
adenosine kinase inhibition [3]: adenosine kinase inhibitors
EC50 [1, 8]: 6.31 nM
EC50 [1, 9]: 6 ± 1.2 nM
increase in systolic pressure [1]: ~14%
bradycardia response [1]: ~25%
Final heart rate ([1]; mean±S.E.M.): 164 ± 3 bpm
Emax in the fractional pressor response [1, 10]: 0.3±0.1
Initial heart rate ([1]; mean±S.E.M.): 219 ± 12 bpm
maximum pressor response (LVP) [1]: 8±4 mmHg

COc1cc2ncnc(Nc3cccc(N(C)C)c3)c2cc1OC.Cl [4i, 6,7-Dimethoxy-4-(3′-N′,N′-dimethylaminoanilino)quinazoline hydrochloride]
reduction of heart rate ([4]; 1 nM 4i, compared to control hearts): approximately 17%
Heart Rate ([4]; HEPES buffer with 1 nM 4i, control 233 ± 7): 194 ± 7 bpm
pressor response with heart rate controlled [5]: almost annulled
adenosine kinase inhibition [3]: adenosine kinase inhibitors
bradycardia response under blocking [6]: not altered
increase in systolic pressure [1]: approximately 35%
bradycardia response [1]: approximately 24%
Final heart rate ([1]; mean±S.E.M.): 173 ± 8 bpm
Emax in the fractional pressor response [1, 10]: 0.9±0.2
Initial heart rate ([1]; mean±S.E.M.): 228 ± 7 bpm
maximum pressor response (LVP) [1]: 27±3 mmHg
LogEC50 in the fractional pressor response ([1]; mean±S.E.M., given as negative log values): −9.9 ± 0.3
EC50 ([1]; mean±S.E.M., infusion of increased concentrations, read-out: EC50 in the fractional pressor response): 0.1 ± 0.03 nM

Nc1ncnc2c1ncn2[C@@H]1O[C@H](CO)[C@@H](O)[C@H]1O [Adenosine, adenosine]
increase in ventricular pressure ([7]; 1 μM adenosine (maximum response)): 16±2 mmHg
decrease in heart rate ([7]; 8-PT (1 μM) present, compared to basal values): about 15%
EC50 ([7]; HEPES buffer with 8-PT (1 μM), read-out: EC50 pressor response): 30 ± 19 nM
EC50 ([7]; pure HEPES buffer, given as negative log values, read-out: LogEC50 in the fractional pressor response (converted)): 6.31 nM
EC50 ([7]; pure HEPES buffer, mean±S.E.M., read-out: EC50 pressor response): 7 ± 1.4 nM
EC50 ([7]; pure HEPES buffer, read-out: EC50 bradycardia response): 1.8 ± 1.4 nM
reduction in heart rate ([7]; compared to absolute basal values, 1 μM adenosine (maximum response)): approximately 19%
Final heart rate ([7]; pure HEPES buffer, final value after increased concentrations): 185 ± 2 bpm
Initial heart rate ([7]; pure HEPES buffer, initial value): 228 ± 2 bpm
Emax in the fractional pressor response ([7]; pure HEPES buffer, mean±S.E.M.): 0.93 ± 0.05
